Earlier results, collected in US20230301939A1, “NOVEL FO[…]” (Neurocentrx Pharma Ltd., priority 2018, published 2023).
Like-named read-outs stand apart in the source and are kept apart here.

Assays:
[1] = target: T1, a7 nicotinic acetylcholine receptor (Rattus norvegicus, UniProt Q05941); conditions: for Negative allosteric modulator activity in words: KXa7R1 cell line, ketamine at the same concentrations (<1 μM)
T1 construct: expressed in transfected cells; host or cells: KXa7R1 cell line (HEK293)
T1 sequence (Q05941 23-502): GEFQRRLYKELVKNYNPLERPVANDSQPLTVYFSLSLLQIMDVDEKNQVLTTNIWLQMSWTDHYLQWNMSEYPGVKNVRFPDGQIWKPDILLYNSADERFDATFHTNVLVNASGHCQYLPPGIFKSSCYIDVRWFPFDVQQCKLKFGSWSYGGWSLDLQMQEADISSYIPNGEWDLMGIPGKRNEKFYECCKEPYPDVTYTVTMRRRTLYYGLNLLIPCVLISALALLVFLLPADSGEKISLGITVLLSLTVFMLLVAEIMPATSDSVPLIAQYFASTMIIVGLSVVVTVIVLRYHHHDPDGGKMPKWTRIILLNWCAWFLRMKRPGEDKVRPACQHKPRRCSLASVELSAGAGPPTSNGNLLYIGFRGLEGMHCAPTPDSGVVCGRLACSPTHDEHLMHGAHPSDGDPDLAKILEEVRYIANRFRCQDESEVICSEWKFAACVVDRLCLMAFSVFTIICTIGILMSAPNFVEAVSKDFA

[2] = in vivo

## N[C@@]1(c2ccccc2Cl)CCC[C@@H](O)C1=O [(2R,6R)-HNK]
mice
  Antidepressant(-like) effect: ketamine-type antidepressant-like effects

## CNC1(c2ccccc2Cl)CCCCC1=O (centres unmarked) [Ketamine, ketamine]
[1]
  Negative allosteric modulator activity in words: inactive
intramuscularly
  Bioavailability: 93%
  Time to peak plasma concentrations: 5 to 15 min
intranasally
  Bioavailability: 8-50%
intravenously
  Time to peak plasma concentrations: within a minute
Oral route
  Bioavailability: 17-20%
orally
  Duration of action in a clinical setting: 4 to 6 h
  Time to peak plasma concentrations: 30 min
rectally
  Bioavailability: 30%

## CN[C@@]1(c2ccccc2Cl)CCCCC1=O [arketamine]
mice
  Antidepressant(-like) effect: greater and lasted longer than that of esketamine

## NC1(c2ccccc2Cl)CCC=CC1=O (centres unmarked) [dehydronorketamine]
[1]; KXa7R1 cell line (HEK293 cells transfected with rat nicotinic acetylcholine receptor genes)
  IC50: 55 nM
[1]
  Negative allosteric modulator activity in words: nanomolar potencies

## NC1(c2ccccc2Cl)CCCC(O)C1=O (centres unmarked) [hydroxynorketamine]
[1]
  Negative allosteric modulator activity in words: nanomolar potencies

## NC1(c2ccccc2Cl)CCCCC1=O (centres unmarked) [norketamine]
[1]
  Negative allosteric modulator activity in words: nanomolar potencies
[2]
  Potency as an anesthetic relative to ketamine: one-third to one-fifth as potent
Following oral administration of ketamine
  Plasma levels relative to ketamine: three times higher
